The IC50 is the concentration at which inhibition is half-maximal.

Drawing on ChEMBL document CHEMBL3233010, “Design, synthesis and biological evaluation of novel 6-alkenylamides substituted of 4-anilinothieno[2,3-d]pyrimidines as irreversible epidermal growth factor receptor inhibitors” (Bioorg Med Chem, 2014), this text covers IC50 for 33 compounds.

Test [1] deals with Epidermal growth factor receptor (Homo sapiens, UniProt P00533, L858R/T790M). The test can be described thus: Inhibition of EGFR T790M/L858R double mutant (unknown origin) expressed in baculovirus expression system using Poly(Glu:Tyr)4:1 substrate after 60 mins by ELISA. For orientation: In an ELISA, binding on a coated surface is turned into a signal by an enzyme label.
Epidermal growth factor receptor (Homo sapiens, UniProt P00533, L858R/T790M), sequence (P00533 25-1210 T790M/L858R limits assumed): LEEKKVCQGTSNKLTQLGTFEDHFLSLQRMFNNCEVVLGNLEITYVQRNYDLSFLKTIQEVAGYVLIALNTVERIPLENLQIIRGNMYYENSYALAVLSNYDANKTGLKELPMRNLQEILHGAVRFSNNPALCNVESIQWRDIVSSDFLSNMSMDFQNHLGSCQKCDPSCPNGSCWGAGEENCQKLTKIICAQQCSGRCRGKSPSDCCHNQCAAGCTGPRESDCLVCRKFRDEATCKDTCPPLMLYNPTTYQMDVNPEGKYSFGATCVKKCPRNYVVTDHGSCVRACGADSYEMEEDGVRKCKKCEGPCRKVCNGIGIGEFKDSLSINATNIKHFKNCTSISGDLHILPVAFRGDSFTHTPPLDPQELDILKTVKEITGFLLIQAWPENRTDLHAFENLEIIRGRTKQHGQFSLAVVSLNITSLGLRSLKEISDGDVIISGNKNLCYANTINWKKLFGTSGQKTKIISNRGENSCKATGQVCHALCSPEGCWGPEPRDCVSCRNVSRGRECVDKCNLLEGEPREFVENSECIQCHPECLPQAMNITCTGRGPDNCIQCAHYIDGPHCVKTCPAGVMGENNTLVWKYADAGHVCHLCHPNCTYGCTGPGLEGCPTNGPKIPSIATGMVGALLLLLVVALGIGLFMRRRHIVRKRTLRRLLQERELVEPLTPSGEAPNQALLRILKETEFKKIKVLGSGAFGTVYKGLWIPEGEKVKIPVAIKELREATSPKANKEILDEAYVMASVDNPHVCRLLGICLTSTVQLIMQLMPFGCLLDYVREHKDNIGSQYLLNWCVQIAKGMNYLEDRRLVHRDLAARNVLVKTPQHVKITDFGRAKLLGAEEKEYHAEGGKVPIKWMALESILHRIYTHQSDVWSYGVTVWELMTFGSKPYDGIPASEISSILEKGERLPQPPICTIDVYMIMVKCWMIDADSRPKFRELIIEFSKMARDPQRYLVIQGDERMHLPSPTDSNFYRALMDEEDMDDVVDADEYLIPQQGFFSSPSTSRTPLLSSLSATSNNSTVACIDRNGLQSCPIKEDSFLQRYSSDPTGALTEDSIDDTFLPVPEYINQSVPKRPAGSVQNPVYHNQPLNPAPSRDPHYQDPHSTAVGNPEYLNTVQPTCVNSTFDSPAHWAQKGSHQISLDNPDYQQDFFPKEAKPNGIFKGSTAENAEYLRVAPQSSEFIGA
In test [2] the target is Epidermal growth factor receptor (Homo sapiens, UniProt P00533). Put plainly: Inhibition of wild type EGFR domain (unknown origin) expressed in baculovirus expression system using Poly(Glu:Tyr)4:1 substrate after 60 mins by ELISA.
Epidermal growth factor receptor (Homo sapiens, UniProt P00533), sequence (P00533 whole entry, the tested form may be a part): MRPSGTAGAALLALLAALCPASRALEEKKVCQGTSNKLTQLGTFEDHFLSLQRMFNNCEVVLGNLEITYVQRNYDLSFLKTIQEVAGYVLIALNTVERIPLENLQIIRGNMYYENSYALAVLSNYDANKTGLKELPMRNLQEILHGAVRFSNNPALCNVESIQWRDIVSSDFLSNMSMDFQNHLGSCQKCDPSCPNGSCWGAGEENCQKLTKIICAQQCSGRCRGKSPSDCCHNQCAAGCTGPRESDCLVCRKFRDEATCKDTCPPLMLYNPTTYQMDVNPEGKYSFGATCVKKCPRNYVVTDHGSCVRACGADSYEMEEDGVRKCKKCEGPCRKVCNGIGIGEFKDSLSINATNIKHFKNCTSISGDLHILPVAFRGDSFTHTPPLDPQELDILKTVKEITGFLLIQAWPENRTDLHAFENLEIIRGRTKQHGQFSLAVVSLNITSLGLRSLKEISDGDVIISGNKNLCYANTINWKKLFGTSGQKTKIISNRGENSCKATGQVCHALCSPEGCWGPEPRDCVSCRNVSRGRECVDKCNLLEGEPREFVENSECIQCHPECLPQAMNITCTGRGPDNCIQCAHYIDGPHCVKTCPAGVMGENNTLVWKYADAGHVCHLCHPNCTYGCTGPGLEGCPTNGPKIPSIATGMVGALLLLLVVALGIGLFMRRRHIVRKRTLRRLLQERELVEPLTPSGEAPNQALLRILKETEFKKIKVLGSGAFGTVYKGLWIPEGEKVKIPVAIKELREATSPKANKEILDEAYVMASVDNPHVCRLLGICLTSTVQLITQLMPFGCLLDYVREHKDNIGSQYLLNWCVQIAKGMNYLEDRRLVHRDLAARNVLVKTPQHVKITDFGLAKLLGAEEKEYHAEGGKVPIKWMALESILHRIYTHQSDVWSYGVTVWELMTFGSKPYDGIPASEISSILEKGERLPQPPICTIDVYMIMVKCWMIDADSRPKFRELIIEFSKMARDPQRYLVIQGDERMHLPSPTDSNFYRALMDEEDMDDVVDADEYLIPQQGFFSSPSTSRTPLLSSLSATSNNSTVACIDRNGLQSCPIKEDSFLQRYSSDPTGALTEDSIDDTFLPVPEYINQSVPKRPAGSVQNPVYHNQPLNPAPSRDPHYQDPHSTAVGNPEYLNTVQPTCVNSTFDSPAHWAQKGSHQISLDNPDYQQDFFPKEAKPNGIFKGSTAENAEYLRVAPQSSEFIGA
In the next test the test system is A-431. The test can be described thus: Antiproliferative activity against human A431 cells assessed as growth inhibition after 72 hrs by SRB assay. The class given is functional, cell-based. Particulars: A-431, 72 h. For orientation: The SRB assay estimates cell density from bound dye.
The subject of the next test is NCI-H1975. The test can be described thus: Antiproliferative activity against gefitinib-resistant human NCI-H1975 cells assessed as growth inhibition after 72 hrs by SRB assay. The format is functional, cell-based. The settings on record: NCI-H1975, 72 h.

As for `O=C(CCl)Nc1cc2c(Nc3ccc(F)c(Cl)c3)ncnc2s1`, the IC50 amounted to 0.71 µM in test [1], 0.04 µM in test [2], 3.58 µM with A-431 and 3.01 µM in the test on NCI-H1975.
Taken in the same sequence, the figures for `O=C(Nc1cc2c(Nc3ccc(F)c(Cl)c3)ncnc2s1)C1CCCC1` were above 10 µM, above 10 µM, 14.9 µM and 39.3 µM.
Turning to `O=C(/C=C/CNCC1COC1)Nc1cc2c(Nc3ccc(F)c(Cl)c3)ncnc2s1`, the IC50 in test [1] worked out at 0.022 µM; in test [2], 0.01 µM; in the test on A-431, 3.93 µM; with NCI-H1975, 62.2 µM.
As to `O=C(/C=C/CN1CC2(CCOCC2)C1)Nc1cc2c(Nc3ccc(F)c(Cl)c3)ncnc2s1`, the IC50 in test [1] worked out at 2.25 µM; in test [2], 2.16 µM; in the test with A-431, 13.4 µM; in the test on NCI-H1975, 39.2 µM.
`CCN(CC)CCN(C)C/C=C/C(=O)Nc1cc2c(Nc3ccc(F)c(Cl)c3)ncnc2s1`: the IC50 in test [1] is 0.354 µM; in test [2], 0.139 µM; with A-431, 4.22 µM; in the test with NCI-H1975, above 100 µM.
As for `O=C(CN1CCN(CCO)CC1)Nc1cc2c(Nc3ccc(F)c(Cl)c3)ncnc2s1`, the IC50 was above 10 µM in test [1], 0.77 µM in test [2], 10.2 µM in the test on A-431 and above 100 µM with NCI-H1975.
Take `C=CCOC(=O)Nc1cc2c(Nc3ccc(F)c(Cl)c3)ncnc2s1`: the 50% inhibitory concentration (IC50) is 26.6 µM in the test on A-431 and 90.2 µM with NCI-H1975.
`CCN(CC)C/C=C/C(=O)Nc1cc2c(Nc3ccc(F)c(Cl)c3)ncnc2s1`: the IC50 in test [1] came out at 0.035 µM; in test [2] it was 0.008 µM; in the test on A-431, 0.64 µM; with NCI-H1975, 11.5 µM.
In the case of `COCCNC/C=C/C(=O)Nc1cc2c(Nc3ccc(F)c(Cl)c3)ncnc2s1`, the IC50 in test [1] stood at 0.005 µM; in test [2] it was 1.04 µM; in the test on A-431 it was 4.85 µM; in the test with NCI-H1975 it was 41.7 µM.
Take `COC(=O)CCCC(=O)Nc1cc2c(Nc3ccc(F)c(Cl)c3)ncnc2s1`: the IC50 in test [1] was above 10 µM; in test [2] it was above 10 µM; in the test with A-431, 27.8 µM; with NCI-H1975, above 100 µM.
Turning to `CN(C)CCCN(C)C/C=C/C(=O)Nc1cc2c(Nc3ccc(F)c(Cl)c3)ncnc2s1`, the IC50 in test [1] is 1.04 µM; in test [2], 0.093 µM; in the test on A-431 it was 3.41 µM; in the test on NCI-H1975 it was above 100 µM.
`O=C(CN1CCC(CCO)CC1)Nc1cc2c(Nc3ccc(F)c(Cl)c3)ncnc2s1`: the IC50 in test [1] was above 10 µM; in test [2], 0.542 µM; with A-431, 9.48 µM; in the test with NCI-H1975, 83.4 µM.
Turning to `CCC(CC)C(=O)Nc1cc2c(Nc3ccc(F)c(Cl)c3)ncnc2s1`, the IC50 in test [1] is above 10 µM; in test [2], above 10 µM; in the test with A-431 it was 22.8 µM; with NCI-H1975, above 100 µM.
On to `O=C(/C=C/CN1CCC2(CC1)OCCO2)Nc1cc2c(Nc3ccc(F)c(Cl)c3)ncnc2s1`, for which the IC50 in test [1] stood at 0.02 µM; in test [2], 0.002 µM; in the test on A-431, 0.55 µM; with NCI-H1975, 6.55 µM.
With `CCN1CCN(C/C=C/C(=O)Nc2cc3c(Nc4ccc(F)c(Cl)c4)ncnc3s2)CC1`, the IC50 in test [1] was found to be 0.004 µM; in test [2] it was 0.035 µM; in the test with A-431 it was 4.37 µM; in the test with NCI-H1975, 20.6 µM.
In the case of `C/C=C(\C)C(=O)Nc1cc2c(Nc3ccc(F)c(Cl)c3)ncnc2s1`, the IC50 in test [1] is above 10 µM; in test [2], 6.41 µM; with A-431, 24.2 µM; in the test on NCI-H1975, above 100 µM.
Taken in the same sequence, the figures for `CN(C)CCCC(=O)Nc1cc2c(Nc3ccc(F)c(Cl)c3)ncnc2s1` were 1.8 µM, 0.799 µM, 3.48 µM and 29.6 µM.
Regarding `O=C(/C=C/CN1CC2(COC2)C1)Nc1cc2c(Nc3ccc(F)c(Cl)c3)ncnc2s1`, the IC50 in test [1] was determined as 0.043 µM; in test [2], 0.007 µM; with A-431, 0.86 µM; in the test on NCI-H1975, 5.54 µM.
Taken in the same sequence, the figures for `CC(C)N1CCN(C/C=C/C(=O)Nc2cc3c(Nc4ccc(F)c(Cl)c4)ncnc3s2)CC1` were 0.002 µM, 0.034 µM, 4.78 µM and 20.7 µM.
`O=C(/C=C/CNCc1ncccn1)Nc1cc2c(Nc3ccc(F)c(Cl)c3)ncnc2s1`: the IC50 in test [1] amounted to 0.055 µM; in test [2], 0.008 µM; in the test with A-431, 3.24 µM; with NCI-H1975, 53 µM.
In the case of `O=C(/C=C/CN1CCC(F)(F)C1)Nc1cc2c(Nc3ccc(F)c(Cl)c3)ncnc2s1`, the IC50 in test [1] amounted to 1.76 µM; in test [2], 0.028 µM; in the test on A-431, 3.69 µM; with NCI-H1975, 15.8 µM.
In the case of `CN(C)C/C=C/C(=O)Nc1cc2c(Nc3ccc(F)c(Cl)c3)ncnc2s1`, the IC50 in test [1] is 0.324 µM; in test [2] it was 0.024 µM; in the test on A-431 it was 0.25 µM; in the test on NCI-H1975 it was 10.1 µM.
Consider `O=C(/C=C/CN1CC(O)C1)Nc1cc2c(Nc3ccc(F)c(Cl)c3)ncnc2s1`, for which the IC50 in test [1] is 0.305 µM; in test [2] it was 0.038 µM; in the test on A-431 it was 1.65 µM; with NCI-H1975, 6.83 µM.
As for `CN1CCN(C/C=C/C(=O)Nc2cc3c(Nc4ccc(F)c(Cl)c4)ncnc3s2)CC1`, the half-inhibitory concentration (IC50) was 0.003 µM in test [1], 0.124 µM in test [2], 4.47 µM in the test on A-431 and 34.8 µM in the test with NCI-H1975.
Taken in the same sequence, the figures for `COC(=O)CC(=O)Nc1cc2c(Nc3ccc(F)c(Cl)c3)ncnc2s1` were above 10 µM, 5 µM, 21.3 µM and above 100 µM.
Turning to `O=C(/C=C/CN1CCS(=O)(=O)CC1)Nc1cc2c(Nc3ccc(F)c(Cl)c3)ncnc2s1`, the IC50 stood at 0.007 µM in test [1], 0.029 µM in test [2], 8.72 µM with A-431 and 75.4 µM in the test with NCI-H1975.
As to `CSC1CCN(C/C=C/C(=O)Nc2cc3c(Nc4ccc(F)c(Cl)c4)ncnc3s2)CC1`, the 50% inhibitory concentration (IC50) amounted to 0.026 µM in test [1], 0.018 µM in test [2], 1.13 µM in the test with A-431 and 5.22 µM in the test with NCI-H1975.
On to `COC(CN(C)C/C=C/C(=O)Nc1cc2c(Nc3ccc(F)c(Cl)c3)ncnc2s1)OC`, for which the IC50 in test [1] came out at 0.061 µM; in test [2] it was 0.002 µM; in the test on A-431, 0.43 µM; in the test on NCI-H1975, 4.89 µM.
Taken in the same sequence, the figures for `CN(C)CCN(C)CC(=O)Nc1cc2c(Nc3ccc(F)c(Cl)c3)ncnc2s1` were above 10 µM, 4.29 µM, 1.59 µM and 17.6 µM.
As to `CN(C)CCCNC/C=C/C(=O)Nc1cc2c(Nc3ccc(F)c(Cl)c3)ncnc2s1`, the concentration for half-maximal inhibition (IC50) in test [1] is 0.0007 µM; in test [2], 1.2 µM; in the test on A-431 it was 25.4 µM; in the test with NCI-H1975 it was above 100 µM.
Turning to `CN1CCN(CC(=O)Nc2cc3c(Nc4ccc(F)c(Cl)c4)ncnc3s2)CC1`, the IC50 is above 10 µM in test [1], 3.4 µM in test [2], 1.7 µM with A-431 and 21.5 µM in the test on NCI-H1975.
As to `O=C(/C=C/CNC1CCOCC1)Nc1cc2c(Nc3ccc(F)c(Cl)c3)ncnc2s1`, the 50% inhibitory concentration (IC50) in test [1] worked out at 0.032 µM; in test [2], 0.02 µM; in the test on A-431, 2.21 µM; with NCI-H1975 it was 7.05 µM.
`O=C(/C=C/CN1CCC(F)CC1)Nc1cc2c(Nc3ccc(F)c(Cl)c3)ncnc2s1`: the concentration for half-maximal inhibition (IC50) with A-431 was 2.4 µM; with NCI-H1975, 10.8 µM.
